# Article PMC7381538, “Broad spectrum antibiotic-degrading metallo-β-lactamases are phylogenetically diverse” (Protein & Cell, 2020)
# pKi: −log10 of the molar value.
# Legend:
# [1] = target: SPR-1trunc (Serratia proteamaculans, UniProt Z9GZR1QZ95); type: biochemical; settings: beta-lactam substrate and mode only in supplement
# [2] = target: SER-1trunc; type: biochemical; settings: beta-lactam substrate and mode only in supplement
# SPR-1trunc, sequence (Z9GZR1QZ95 50-298 limits assumed): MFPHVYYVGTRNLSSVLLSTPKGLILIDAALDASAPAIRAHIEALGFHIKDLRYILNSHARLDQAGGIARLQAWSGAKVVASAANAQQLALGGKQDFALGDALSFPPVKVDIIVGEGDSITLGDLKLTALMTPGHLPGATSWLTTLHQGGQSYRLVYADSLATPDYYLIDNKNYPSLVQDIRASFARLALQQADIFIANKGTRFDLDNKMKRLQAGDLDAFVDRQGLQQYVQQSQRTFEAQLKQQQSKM
compound,measurement,setting,value
"O=C(O)[C@H]1/C(=C/CO)O[C@@H]2CC(=O)N21 [CA, clavulanic acid]",pKi,[1],3.70
same,pKi,[2],3.54
